# Measurements from patent US20230142705A1, “USE OF ANTI-AGING GLYCOPEPTIDES FOR INHIBITION OF IMMUNE REJECTION OF A GRAFT” (PROTOKINETIX INC., priority 2020, published 2023).
# Assays:
# CD4+ T cells = assay: Immunohistochemistry to detect CD4+ T cells in conjunctival epithelium of dry eye disease-induced mice; type: in vivo, mouse; conditions: bilateral topical administration of 5%; for CD4+ T cells infiltration into the conjunctival epithelium: DS-induced mice, result in words
# Protocol: Enucleated mouse eyes with intact conjunctiva were suspended in optimal cutting temperature (OCT) compound and flash frozen in liquid nitrogen. Immunohistochemistry was performed on six-micrometer frozen sections to detect and count the number of cells in conjunctival epithelium that stained positively for CD4 (clone H129.9, 10 μg/mL; BD Biosciences® cat #553647), a biotinylated secondary antibody (BD Pharmingen® cat #559286), and NovaRED® peroxidase (Vector Laboratories® cat #SK-4800). Secondary antibody alone and anti-rat isotype (clone A110-2; BD Biosciences® cat #553992) controls were also examined. Positively stained cells were counted in the GC-rich area of the conjunctiva using image analysis software (Nikon NIS Elements® software) using a 10×objective. T-cell detection and quantification was performed on Arms 1, 2, 4, and 5 only. CD4+ T cells infiltration into the conjunctival epithelium is a primary clinical indicator of dry eye disease (DED), which is used here as a proxy to study immune cell infiltration into diseased tissue suffering from […].
# [1] = tested on: photoreceptor precursor cells (PPCs); assay: Survival of AAGP-pretreated photoreceptor precursor cells after subretinal transplantation into rabbits with retinal degeneration; type: in vivo, Rabbit (Oryctolagus cuniculus); conditions: PPCs pre-treated in vitro 24 hours with 4 mg/mL; 6 months post subretinal transplantation; cyclosporine-A discontinued two weeks post transplantation; qualitative visual examination of flatmounts
# Protocol: The objective of this study was to determine the effect of 24-hour pretreatment with anti-aging glycoprotein (AAGP™) at 4 mg/mL on the long-term (6 months) survival and functional activity of photoreceptor precursor cells (PPCs) following their subretinal transplantation into the eye of rabbits with retinal degeneration.
# PPCs were generated in vitro from pluripotent human embryonic stem cells (hESCs) and incubated for 24 hours in media alone (control group) or media containing 4 mg/mL AAGP™ Following incubation, treated and untreated PPCs were labeled and injected into the subretinal space of the eye of immunosuppressed rabbits with induced retinal degeneration (4-5 rabbits/group). Animals were euthanized 6 month later, retinas were collected, and cell survival was determined in excised retinal flatmounts by imaging with confocal laser scanning system. The functional activity of transplanted cells was assessed by immunostaining for synaptic (Ribeye and Bassoon) and photoreceptor markers (Arrestin and Blue Opsin).
# Retinal degeneration was induced on Day 1 of the study. […]
# [2] = DS5 mice, conjunctival epithelium
compound,measurement,setting,value
C[C@H](NC(=O)[C@H](C)NC(=O)[C@@H](N)CCCCNC(=O)C(F)(F)C1(O)O[C@H](CO)[C@H](O)[C@H](O)[C@H]1O)C(=O)O.Cl (stereo partly drawn) [AAGP™],"T-Cell Density, 25% Percentile",CD4+ T cells; [2],0.3767
same,"T-Cell Density, 75% Percentile",CD4+ T cells; [2],0.7663
same,"T-Cell Density, Maximum",CD4+ T cells; [2],1.152
same,"T-Cell Density, Mean",CD4+ T cells; [2],0.5644
same,"T-Cell Density, Median",CD4+ T cells; [2],0.4907
same,"T-Cell Density, Minimum",CD4+ T cells; [2],0.2307
same,CD4+ T cells infiltration into the conjunctival epithelium,CD4+ T cells,suppresses T-cell response
same,CD4+ T cells infiltration into the conjunctival epithelium,CD4+ T cells; listed as PKX-001,significantly reduced
same,cell survival of transplanted PPCs,[1],substantial increase
